PubChem BioAssay AID1259407 (Chemical Carcinogenesis Research Information System (CCRIS), 2018)
Active and inactive are the calls of the source. No rule for the calls is given here.

System: CCRIS mutagenicity, Ames/micronucleus/aberration tests
Experiment: CCRIS mutagenicity studies
[1] = Test System: AMES SALMONELLA TYPHIMURIUM, Strain/Indicator: TA98, Metabolic Activation: NONE, Method: STANDARD PLATE
[2] = Test System: AMES SALMONELLA TYPHIMURIUM, Strain/Indicator: TA98, Metabolic Activation: RAT, LIVER, S-9, AROCLOR 1254, Method: STANDARD PLATE
[3] = Test System: AMES SALMONELLA TYPHIMURIUM, Strain/Indicator: TA100, Metabolic Activation: NONE, Method: STANDARD PLATE
[4] = Test System: AMES SALMONELLA TYPHIMURIUM, Strain/Indicator: TA100, Metabolic Activation: RAT, LIVER, S-9, AROCLOR 1254, Method: STANDARD PLATE
[5] = Test System: AMES SALMONELLA TYPHIMURIUM, Strain/Indicator: TA1535, Metabolic Activation: HAMSTER, LIVER, S-9, AROCLOR 1254, Method: STANDARD PLATE
[6] = Test System: AMES SALMONELLA TYPHIMURIUM, Strain/Indicator: TA1535, Metabolic Activation: NONE, Method: STANDARD PLATE
[7] = Test System: AMES SALMONELLA TYPHIMURIUM, Strain/Indicator: TA1535, Metabolic Activation: RAT, LIVER, S-9, AROCLOR 1254, Method: STANDARD PLATE
[8] = Test System: AMES SALMONELLA TYPHIMURIUM, Strain/Indicator: TA1537, Metabolic Activation: NONE, Method: STANDARD PLATE
[9] = Test System: AMES SALMONELLA TYPHIMURIUM, Strain/Indicator: TA1537, Metabolic Activation: RAT, LIVER, S-9, AROCLOR 1254, Method: STANDARD PLATE
[10] = Test System: AMES SALMONELLA TYPHIMURIUM, Strain/Indicator: TA102, Metabolic Activation: NONE, Method: STANDARD PLATE
[11] = Test System: AMES SALMONELLA TYPHIMURIUM, Strain/Indicator: TA1538, Metabolic Activation: NONE, Method: STANDARD PLATE

Compound: CCCON=O
- mutagenic call (Test System: AMES SALMONELLA TYPHIMURIUM, Strain/Indicator: TA98, Metabolic Activation: HAMSTER, LIVER, S-9, AROCLOR 1254, Method: STANDARD PLATE): inactive; negative
- mutagenic call [1]: inactive; negative
- mutagenic call [2]: inactive; negative
- mutagenic call (Test System: AMES SALMONELLA TYPHIMURIUM, Strain/Indicator: TA100, Metabolic Activation: HAMSTER, LIVER, S-9, AROCLOR 1254, Method: STANDARD PLATE): active; positive
- mutagenic call [3]: inactive; negative
- mutagenic call [4]: active; positive
- mutagenic call [5]: active; positive
- mutagenic call [6]: active; positive
- mutagenic call [7]: active; positive
- mutagenic call (Test System: AMES SALMONELLA TYPHIMURIUM, Strain/Indicator: TA1537, Metabolic Activation: HAMSTER, LIVER, S-9, AROCLOR 1254, Method: STANDARD PLATE): inactive; negative
- mutagenic call [8]: inactive; negative
- mutagenic call [9]: inactive; negative
- mutagenic call (Test System: MOUSE LYMPHOMA, Strain/Indicator: L5178Y (TK+/TK-), Metabolic Activation: NONE, Method: SUSPENSION/PLATE): active; positive. reevaluation of results: inconclusive
- mutagenic call (Test System: MOUSE LYMPHOMA, Strain/Indicator: L5178Y (TK+/TK-), Metabolic Activation: RAT, LIVER, S-9, AROCLOR 1254, Method: SUSPENSION/PLATE): active; positive. reevaluation of results: positive
- mutagenic call (Test System: Mouse lymphoma, Strain/Indicator: L5178Y (tk+/tk-), Metabolic Activation: None, Method: Suspension/plate): active; positive
- mutagenic call (Test System: Mouse lymphoma, Strain/Indicator: L5178Y (tk+/tk-), Metabolic Activation: Rat, Liver, S-9, Aroclor 1254, Method: Suspension/plate): active; positive

Compound: O=[N+]([O-])OCC(CO[N+](=O)[O-])O[N+](=O)[O-]
- mutagenic call (Test System: AMES SALMONELLA TYPHIMURIUM, Strain/Indicator: TA100(NR), Metabolic Activation: NONE, Method: STANDARD PLATE): inactive; negative
- mutagenic call [3]: inactive; negative
- mutagenic call (Test System: AMES SALMONELLA TYPHIMURIUM, Strain/Indicator: TA102, Metabolic Activation: HAMSTER, LIVER, S-9, AROCLOR 1254, Method: STANDARD PLATE): inactive; negative
- mutagenic call [10]: inactive; negative
- mutagenic call [5]: active; positive
- mutagenic call [6]: active; positive
- mutagenic call [11]: inactive; negative
- mutagenic call (Test System: AMES SALMONELLA TYPHIMURIUM, Strain/Indicator: TA1975, Metabolic Activation: NONE, Method: STANDARD PLATE): inactive; negative
- mutagenic call (Test System: AMES SALMONELLA TYPHIMURIUM, Strain/Indicator: YG1026, Metabolic Activation: NONE, Method: STANDARD PLATE): inactive; negative

Compound: COc1nsc2cc(N)ccc12
- mutagenic call (Test System: AMES SALMONELLA TYPHIMURIUM, Strain/Indicator: TA98, Metabolic Activation: S-9, Method: STANDARD PLATE): active; positive

Compound: O=c1c2c(O)cccc2oc2c3c(cc(O)c12)O[C@H]1OC=C[C@@H]31
- mutagenic call (Test System: AMES SALMONELLA TYPHIMURIUM, Strain/Indicator: TA98, Metabolic Activation: RAT, LIVER, S-9, PHENOBARBITAL, Method: STANDARD PLATE): inactive; negative
- mutagenic call (Test System: AMES SALMONELLA TYPHIMURIUM, Strain/Indicator: TA100, Metabolic Activation: RAT, LIVER, S-9, PHENOBARBITAL, Method: STANDARD PLATE): active; positive

Compound: c1ccc2c(c1)-c1c(ccc3ccccc13)[C@H]1N[C@@H]21
- mutagenic call (Test System: AMES SALMONELLA TYPHIMURIUM, Strain/Indicator: TA98, Metabolic Activation: NONE, Method: PREINCUBATION (KCL-CONTAINING MEDIUM)): active; positive
- mutagenic call (Test System: AMES SALMONELLA TYPHIMURIUM, Strain/Indicator: TA98, Metabolic Activation: NONE, Method: PREINCUBATION (KCL-FREE MEDIUM)): active; positive
- mutagenic call (Test System: AMES SALMONELLA TYPHIMURIUM, Strain/Indicator: TA100, Metabolic Activation: NONE, Method: PREINCUBATION (KCL-CONTAINING MEDIUM)): active; positive
- mutagenic call (Test System: AMES SALMONELLA TYPHIMURIUM, Strain/Indicator: TA100, Metabolic Activation: NONE, Method: PREINCUBATION (KCL-FREE MEDIUM)): active; positive

Compound: CN(C)C(=S)S
- mutagenic call [3]: active; positive
- mutagenic call (Test System: AMES SALMONELLA TYPHIMURIUM, Strain/Indicator: TA100, Metabolic Activation: S-9 MIX, Method: STANDARD PLATE): inactive; negative

Compound: c1c[nH]cn1
- mutagenic call (Test System: AMES SALMONELLA TYPHIMURIUM, Strain/Indicator: TA97, Metabolic Activation: NONE, Method: STANDARD PLATE): inactive; negative
- mutagenic call (Test System: AMES SALMONELLA TYPHIMURIUM, Strain/Indicator: TA97, Metabolic Activation: RAT, LIVER, S-9, PHENOBARBITAL AND BETA-NAPHTHOFLAVONE, Method: STANDARD PLATE): inactive; negative
- mutagenic call [1]: inactive; negative
- mutagenic call (Test System: AMES SALMONELLA TYPHIMURIUM, Strain/Indicator: TA98, Metabolic Activation: RAT, LIVER, S-9, PHENOBARBITAL AND BETA-NAPHTHOFLAVONE, Method: STANDARD PLATE): inactive; negative
- mutagenic call [3]: inactive; negative
- mutagenic call (Test System: AMES SALMONELLA TYPHIMURIUM, Strain/Indicator: TA100, Metabolic Activation: RAT, LIVER, S-9, PHENOBARBITAL AND BETA-NAPHTHOFLAVONE, Method: STANDARD PLATE): inactive; negative
- mutagenic call [10]: inactive; negative
- mutagenic call (Test System: AMES SALMONELLA TYPHIMURIUM, Strain/Indicator: TA102, Metabolic Activation: RAT, LIVER, S-9, PHENOBARBITAL AND BETA-NAPHTHOFLAVONE, Method: STANDARD PLATE): inactive; negative
- mutagenic call (Test System: UDS RAT HEPATOCYTES, Strain/Indicator: THY INCORP, Metabolic Activation: NONE, Method: AUTORADIOGRAPHY): inactive; negative

Compound: C[C@H](CCC(=O)NCCS(=O)(=O)O)[C@H]1CC[C@H]2[C@@H]3C[C@H](O)[C@@H]4C[C@H](O)CC[C@]4(C)[C@H]3CC[C@]12C
- mutagenic call [1]: inactive; negative
- mutagenic call [2]: inactive; negative
- mutagenic call [3]: inactive; negative
- mutagenic call [4]: inactive; negative
- mutagenic call [6]: inactive; negative
- mutagenic call [7]: inactive; negative
- mutagenic call [8]: inactive; negative
- mutagenic call [9]: inactive; negative
- mutagenic call [11]: inactive; negative
- mutagenic call (Test System: AMES SALMONELLA TYPHIMURIUM, Strain/Indicator: TA1538, Metabolic Activation: RAT, LIVER, S-9, AROCLOR 1254, Method: STANDARD PLATE): inactive; negative
